According to the SangsterLogP compilation:

How the values were obtained:
[1] = method code SF-AS, from DOI: 10.1016/0048-3575(88)90061-2
[2] = not given; remark: listed apart in the source
[3] = method code SF-HPLC, from DOI: 10.1016/s0223-5234(02)01360-0, PMID: 12008054; conditions: pH 7.4
[4] = method code SF, from DOI: 10.1007/bf02222191, PMID: 2473627
[5] = not given; remark: listed apart in the source
[6] = method code SF, from DOI: 10.1111/j.1365-2958.1992.tb00853.x, PMID: 1640833
[7] = not given; remark: listed apart in the source
[8] = method code SF-RC, from DOI: 10.1016/j.bmcl.2015.05.048, PMID: 26073008; conditions: pH 7.4
[9] = not given; remark: listed apart in the source
[10] = not given; remark: listed apart in the source
[11] = method code SF-HPLC, from PMID: 11745753; conditions: pH 11.0
[12] = method code SF, from DOI: 10.1016/j.bmcl.2012.08.112, PMID: 23010264; conditions: pH 7.4
[13] = method code SF-HPLC, from Liang, J.; Deng, J. (2011). Determination of n-octanol/wanter Partition Coefficient of Mangiferin. West China Journal of Pharmaceutical Sciences, 26(2)193-195.; conditions: pH 2.5
[14] = not given; remark: listed apart in the source
[15] = method code SF-RC, from DOI: 10.1111/j.2042-7158.1981.tb11724.x
[16] = method code SF-RC, from DOI: 10.1016/j.ejmech.2016.07.069, PMID: 27565554; conditions: pH 7.4
[17] = method code SF-HPLC, from DOI: 10.1002/jps.2600840622; conditions: pH 7.0
[18] = method code SF-HPLC, from DOI: 10.1002/jps.2600830510, PMID: 8071813
[19] = method code SF-AS, from DOI: 10.1021/jm00392a004, PMID: 3625703; conditions: pH 6.9
[20] = not given; remark: listed apart in the source
[21] = not given; remark: listed apart in the source
[22] = not given; remark: listed apart in the source
[23] = not given; remark: listed apart in the source
[24] = not given; remark: listed apart in the source
[25] = not given; remark: listed apart in the source
[26] = not given; remark: listed apart in the source
[27] = method code SF-RC, from DOI: 10.1002/jlcr.1930
[28] = method code SF-HPLC, from DOI: 10.1016/j.ijpharm.2010.12.025, PMID: 21185925
[29] = method code SF-AS, from PMID: 4096735; conditions: pH 7.4
[30] = not given; remark: listed apart in the source
[31] = not given; remark: listed apart in the source
[32] = not given; remark: listed apart in the source
[33] = method code SF-HPLC, from DOI: 10.1002/jps.23218, PMID: 22644947; conditions: pH 7.0
[34] = method code SF, from DOI: 10.1021/jm00123a006, PMID: 2918500; conditions: pH 7.4
[35] = not given; remark: listed apart in the source
[36] = not given; remark: listed apart in the source
[37] = method code SF, from DOI: 10.1021/bk-1995-0606.ch008
[38] = method code SF-HPLC, from DOI: 10.1211/0022357011778025, PMID: 11732751; conditions: pH 5.0
[39] = method code SF, from DOI: 10.1248/cpb.35.4144, PMID: 3435941; conditions: pH 6.8
[40] = from Kyomura, N., Fukuchi, T., Kohyama, Y., & Motojima, S. (1990). Biological characteristics of new acaricide MK-239. In Brighton Crop Protection Conference, Pests and Diseases - 1990 (Vol. 1, pp. …
[41] = method code SF-RC, from Godoy, N.; Valle, L.; Mena, P.; Gil, M. (1989). Synthesis, labeling and biodistribution of 99mTc-labelled bromoimino diacetic acids. Nucleotecnica, 9(17)25-32.
[42] = method code SF-AS, from DOI: 10.1002/pauz.19770060602
[43] = not given; remark: listed apart in the source

## O=C(NC(=O)c1c(F)cccc1F)Nc1ccc(Oc2ncc(Cl)cc2Cl)cc1
[1]
  logP: 3.27

## CNCCC=C1c2ccccc2CCc2ccccc21
other
  logP: 4.4

## Cc1onc(-c2ccccc2)c1C(=O)NC1C(=O)N2C1SC(C)(C)C2C(=O)O (centres undefined)
[2]
  logP: 2.34

## COc1cc2nc(N3CCN(C(=O)C4CCCO4)CC3)nc(N)c2cc1OC (centres undefined)
[3]
  logD: 1.14

## CC(C)NCC(O)COc1ccccc1C1CCCCC1 (centres undefined)
[4]
  logP: 2.86

## COc1ccc2c3c1O[C@H]1[C@@H](O)C=C[C@H]4[C@@H](C2)N(C)CC[C@@]341
[5]
  logP: 1.22

## C[C@]12CCC(=O)C[C@@H]1CC[C@@H]1[C@@H]2CC[C@]2(C)C(=O)CC[C@@H]12
[6]
  logP: 3.6

## C[C@H]1[C@H](N2CCS(=O)(=O)CC2)O[C@@H]2O[C@@]3(C)CC[C@H]4[C@H](C)CC[C@@H]1[C@@]24OO3
[7]
  logP: 2.49

## COc1ccc(/C=C/c2cc(=O)c3cc(I)ccc3o2)cc1OC
[8]
  logD: 2.14

## C=CCN1CC[C@@]23CCCC[C@H]2[C@@H]1Cc1ccc(O)cc13
[9]
  logP: 3.48

## CCN(CC)CCCN1c2ccccc2Sc2ccc(Cl)cc21
[10]
  logP: 6.46

## CCCCN1CCCCC1C(=O)Nc1c(C)cccc1C (centres undefined)
[11]
  logD: 3.35

## COCC(C1CC1)n1cc(Cl)nc(Nc2cc(C)c(OC)cc2C)c1=O (centres undefined)
[12]
  logD: 4.4

## O=c1c2cc(O)c(O)cc2oc2cc(O)c([C@@H]3O[C@H](CO)[C@@H](O)[C@H](O)[C@H]3O)c(O)c12
[13]
  logD: 0.36

## COC(=O)c1cc(OC)c2c(c1-c1c(CO)cc(OC)c3c1OCO3)OCO2
[14]
  logP: 1.7

## CCC(=O)O[C@H]1CC[C@H]2[C@@H]3CCC4=CC(=O)CC[C@]4(C)[C@H]3CC[C@]12C
[15]
  logP: 3.72

## COc1cc2c(cc1I)C/C(=C\c1ccc(N(C)C)cc1)C2=O
[16]
  logD: 3.45

## CCN1CCN(c2cc3c(cc2F)c(=O)c(C(=O)O)cn3CC)CC1
[17]
  logD: 0.37

## O=C(OCCN1CCOCC1)c1ccccc1Nc1c(Cl)cccc1Cl
[18]
  logP: 2.72

## CCCCCCCCCC1(c2ccncc2)CCC(=O)NC1=O (centres undefined)
[19]
  logD: 4.64

## O=S(=O)(c1ccc(F)cc1)C1CCN(CCc2ccc(F)cc2F)CC1
[20]
  logP: 2.47

## COc1cc2c(cc1O)CC[C@@H]1C2CC[C@]2(C)[C@@H](O)CC[C@@H]12 (stereo in doubt)
[21]
  logP: 2.86

## Cc1ccc(/C(=C\CN2CCCC2)c2ccccn2)cc1
[22]
  logP: 3.87

## CN1CCN(CC(=O)N2c3ccccc3C(=O)Nc3cccnc32)CC1
[23]
  logP: 0.1

## CC(C)(Oc1ccccc1)C(=O)N[C@@H]1C(=O)N2[C@@H]1SC(C)(C)[C@@H]2C(=O)O
[24]
  logP: 2.76

## O=C(NN1C(=O)[C@@H]2[C@@H]3C=C[C@@H]([C@H]4C[C@@H]34)[C@@H]2C1=O)c1ccc(C(F)(F)F)cc1
[25]
  logP: 2.36

## CC1N=C2C3CC(c4ccccc4)CCC3C=CN2C1C (centres undefined)
[26]
  logP: 3.9

## COc1cc2c(cc1OS(N)(=O)=O)CC[C@@H]1[C@@H]2CC[C@]2(C)[C@@H](OS(N)(=O)=O)CC[C@@H]12
[27]
  logP: 2.25

## CCCc1nc(C[C@H](NC(=O)[C@@H]2CCC(=O)N2)C(=O)N2CCC[C@H]2C(N)=O)c[nH]1
[28]
  logP: -1.07

## CCOC(=O)CCCCOc1ccc(-c2nc3c(N)nc(N)nc3nc2N)cc1
[29]
  logD: 0.8

## CC[C@@H](c1ccc(O)cc1)[C@H](CCF)c1ccc(O)cc1
[30]
  logP: 4.03

## CC12CCC3c4ccc(O)cc4CCC3C1CC(F)C2O (centres undefined)
[31]
  logP: 2.98

## CC(C)(C)NCC(COc1nsnc1N1CCOCC1)OC(=O)C1CCC1 (centres undefined)
[32]
  logP: 2.36

## CCOC(=O)N(CCN(C(=O)OCC)C(=O)OCC)CCN(C(=O)OCC)C(=O)OCC
[33]
  logD: 2.3

## [N-]=[N+]=Nc1ccc(CCN2CCN(c3cccc(C(F)(F)F)c3)CC2)cc1I
[34]
  logD: 3.33

## Cc1ccccc1C(OCCN(C)C)c1ccccc1 (centres undefined)
[35]
  logP: 3.77

## CC(C)CC(O)C(O)C(CC1CCCCC1)NC(=O)OC(C)(C)C (centres undefined)
[36]
  logP: 3.98

## O=C(Nc1ccc(F)cc1F)c1cccnc1Oc1cccc(C(F)(F)F)c1
[37]
  logP: 4.49

## CCN(CC)C(=O)C(C#N)=Cc1cc(OC(=O)C(C)(C)C)c(O)c([N+](=O)[O-])c1
[38]
  logD: 2.24

## COC(=O)C1=C(C)NC(C)=C(P2(=O)OCCCO2)C1c1ccccc1[N+](=O)[O-] (centres undefined)
[39]
  logD: 1.3

## CCc1nn(C)c(C(=O)NCc2ccc(C(C)(C)C)cc2)c1Cl
[40]
  logP: 4.61

## CC(C)c1ccc(Br)c(C(C)C)c1NC(=O)CN(CC(=O)O)CC(=O)O
[41]
  logP: 0.2

## O=C1CN=C(c2ccccc2)c2cc(Cl)ccc2N1CC1CC1
[42]
  logP: 3.31

## CO[C@H]1C[C@]2(C)[C@@H](O)CC[C@H]2[C@@H]2CCc3cc(O)ccc3[C@H]21
[43]
  logP: 2.72
